In test [1] the target is T1, ligand-binding domain of RORγ (RORγ-LBD) (Homo sapiens, UniProt P51449).
T1 construct: purchased Invitrogen
T1 sequence (P51449 269-508 limits assumed): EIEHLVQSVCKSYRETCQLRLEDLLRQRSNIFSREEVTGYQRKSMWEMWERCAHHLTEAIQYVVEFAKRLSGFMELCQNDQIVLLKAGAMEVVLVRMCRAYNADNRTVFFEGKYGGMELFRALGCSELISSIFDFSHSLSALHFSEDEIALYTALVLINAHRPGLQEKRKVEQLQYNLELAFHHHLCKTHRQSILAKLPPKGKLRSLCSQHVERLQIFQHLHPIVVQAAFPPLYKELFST
The test is described as follows: Inhibitory effect on RORγ-coactivator binding (LanthaScreen TR-FRET RORγ Coactivator Assay). The settings on record: at 33 μmol/L of the test compound; read-out: RORγ-coactivator binding inhibition rate (%). Here is the method:
The inhibitory effect of the cyclic amine derivative (I) or a pharmacologically acceptable salt thereof on the binding between a ligand-binding domain of RORγ (hereinafter referred to as RORγ-LBD) and a coactivator was evaluated using Invitrogen's LanthaScreen™TR-FRET Retinoid-Related Orphan Receptor (ROR) gamma Coactivator Assay kit utilizing time-resolved fluorescence energy transfer (TR-FRET).
The test compound was dissolved in DMSO and diluted with TR-FRET Coregulator Buffer D (Invitrogen) containing 5 mmol/L of DTT to have a final DMSO concentration of 1% before use. To each well of a 384-well black plate (Corning Inc.), 4 nmol/L of GST-fused RORγ-LBD (Invitrogen) diluted with the buffer mentioned above and the test compound were added. A well without addition of the test compound and without addition of GST-fused RORγ-LBD (background) and a well without addition of the test compound and with addition of GST-fused RORγ-LBD (control) were prepared. Next, 150 nmol/L of fluorescein-labeled TRAP220/DRIP-2 (Invitrogen) diluted with the buffer mentioned above and 32 nmol/L of terbium-labeled anti-GST antibody (Invitrogen) were added to each well. After incubating the plate at room temperature for 16 to 24 hours, the fluorescence at 495 nm and 520 nm when excited at 320 nm was measured for each well and the ratio (fluorescence value at 520 nm/fluorescence value at 495 nm) was calculated.
The fold change with addition of the test compound (ratio with addition of the test compound/ratio of the background), the fold change of the control (ratio of the control/ratio of the background), and the fold change of the background (ratio of the background/ratio of the background) were calculated, and then the inhibition rate of binding between RORγ-LBD and a coactivator (hereinafter referred to as RORγ-coactivator binding inhibition rate) (%) was calculated from Formula 1: RORγ-coactivator binding inhibition rate(%)=(1−((Fold change with addition of the test compound)−(Fold change of the background))/((Fold change of the control)−(Fold change of the background)))×100 Formula 1
Background: In TR-FRET formats the signal depends on donor and acceptor labels being close together.

Test [2] concerns IL-17 production in mouse splenocytes. The test is described as follows: Suppressive effect on IL-17 production by IL-23 stimulation in mouse splenocytes. The settings on record: Splenocyte, 72 h, at 5 μmol/L of the test compound, 10 ng/mL human IL-23, 3 days, read-out: IL-17 production inhibition rate (%). In kind it is cell-based. The protocol:
Using mouse splenocytes, the suppressive effect of the cyclic amine derivative (I) or a pharmacologically acceptable salt thereof on IL-17 production by IL-23 stimulation was evaluated by a partially modified method mentioned in The Journal of Biological Chemistry, 2003, Vol. 278, No. 3, p. 1910-1914.
A single cell suspension was prepared from the spleen of C57BL/6J mice (male, 7 to 23 weeks old) (Charles River Laboratories Japan, Inc.) and splenocytes were prepared using Histopaque-1083 (Sigma-Aldrich Japan). The culture medium was used by adding 10% FBS (Gibco), 50 U/mL of penicillin 50 μg/mL of streptomycin (Gibco), 50 μmol/L of 2-mercaptoethanol (Gibco), and 100 U/mL of human IL-2 (Cell Science & Technology Institute, Inc.) to RPMI1640 medium (Gibco). The test compound was dissolved in DMSO and then diluted with the culture medium to have a final concentration of DMSO of 0.1% before use. Splenocytes (3×10^5 cells/well) prepared in the culture medium were seeded in wells of a 96-well flat-bottom plate (Corning Incorporated), the test compound and 10 ng/mL of human IL-23 (R & D systems, Inc.) were added thereto, and the cells were cultured at 37° C. under 5% CO2 for 3 days. A well without addition of human IL-23 and without addition of the test compound and a well with addition of human IL-23 and without addition of the test compound were prepared. After completion of the culture, the culture supernatant was collected and the IL-17 production amount in the supernatant was determined by ELISA method (R & D systems, Inc.).
The IL-17 production inhibition rate (%) was calculated from Formula 2. IL-17 production inhibition rate(%)=(1−((IL-17 production amount with addition of IL-23 and with addition of the test compound)−(IL-17 production amount without addition of IL-23 and without addition of the test compound))/((IL-17 production amount with addition of IL-23 and without addition of the test compound)−(IL-17 production amount without addition of IL-23 and without addition of the test compound)))×100 Formula 2

The inhibition is the relative decrease from the control value, in per cent. Consider `CN(C)C(=O)N1CCCCC1C(=O)Nc1ccc(-c2ccccc2OC(F)(F)F)c(Cl)c1` (centres unmarked) [Example 18, N^2-(2-chloro-2′-(trifluoromethoxy)-[1,1′-biphenyl]-4-yl)-N^1,N^1-dimethylpiperidine-1,2-dicarboxamide], for which the inhibition at 33 µM in test [1] amounted to 95.9%. Further, the inhibition at 5 µM in test [2] was determined as 90.8%.

As for `COC(=O)N1CCCCC1C(=O)Nc1ccc(-c2ccccc2OC(F)(F)F)c(Cl)c1` (centres unmarked) [Example 19, methyl 2-((2-chloro-2′-(trifluoromethoxy)-[1,1′-biphenyl]-4-yl)carbamoyl)piperidine-1-carboxylate], the inhibition at 33 µM in test [1] was found to be 93.4%. Also, in test [2], the inhibition at 5 µM amounted to 99.8%.

Consider `CS(=O)(=O)N1CCCC[C@@H]1C(=O)Nc1ccc(-c2ccccc2OC(F)(F)F)c(Cl)c1` [Example 21, (R)-N-(2-chloro-2′-(trifluoromethoxy)-[1,1′-biphenyl]-4-yl)-1-(methylsulfonyl)piperidine-2-carboxamide], for which the inhibition at 33 µM in test [1] was 98.2%. The inhibition at 5 µM in test [2] was found to be 99.8%.

In the case of `NC(=O)N1CCCC[C@@H]1C(=O)Nc1ccc(-c2ccccc2OC(F)(F)F)c(Cl)c1` [Example 22, (R)-N^2-(2-chloro-2′-(trifluoromethoxy)-[1,1′-biphenyl]-4-yl)piperidine-1,2-dicarboxamide], the inhibition at 33 µM in test [1] worked out at 92.4%. Besides, the inhibition at 5 µM in test [2] is 98.1%.

Consider `O=C(Nc1ccc(-c2ccccc2OC(F)(F)F)c(Cl)c1)[C@H]1CCCCN1C(=O)C(F)(F)F` [Example 23, (R)-N-(2-chloro-2′-(trifluoromethoxy)-[1,1′-biphenyl]-4-yl)-1-(2,2,2-trifluoroacetyl)piperidine-2-carboxamide], for which the inhibition at 33 µM in test [1] is 98.4%. Also, in test [2], the inhibition at 5 µM was found to be 99.4%.

As for `CC(=O)N1CC[C@@H](F)C[C@@H]1C(=O)Nc1ccc(-c2ccccc2OC(F)(F)F)c(Cl)c1` [Example 25, (2R,4R)-1-acetyl-N-(2-chloro-2′-(trifluoromethoxy)-[1,1′-biphenyl]-4-yl)-4-fluoropiperidine-2-carboxamide], in test [1], the inhibition at 33 µM was 94.2%. Moreover, the inhibition at 5 µM in test [2] was 99.4%.

Turning to `CS(=O)(=O)N1CCC(F)(F)C[C@@H]1C(=O)Nc1ccc(-c2ccccc2OC(F)(F)F)c(Cl)c1` [Example 28, (R)-N-(2-chloro-2′-(trifluoromethoxy)-[1,1′-biphenyl]-4-yl)-4,4-difluoro-1-(methylsulfonyl)piperidine-2-carboxamide], the inhibition at 33 µM in test [1] turned out to be 101%. In addition, the inhibition at 5 µM in test [2] is 98.6%.

`CS(=O)(=O)NCCC(=O)N1CCCCC1C(=O)Nc1ccc(-c2ccccc2OC(F)(F)F)c(Cl)c1` (centres unmarked) [Example 32, N-(2-chloro-2′-(trifluoromethoxy)-[1,1′-biphenyl]-4-yl)-1-(3-(methylsulfonamide)propanoyl)piperidine-2-carboxamide]: in test [1], the inhibition at 33 µM worked out at 94.7%. Besides, the inhibition at 5 µM in test [2] worked out at 98.8%.

For `CN(CCC(=O)N1CCCCC1C(=O)Nc1ccc(-c2ccccc2OC(F)(F)F)c(Cl)c1)S(C)(=O)=O` (centres unmarked) [Example 36, N-(2-chloro-2′-(trifluoromethoxy)-[1,1′-biphenyl]-4-yl)-1-(3-(N-methylmethylsulfonamide)propanoyl)piperidine-2-carboxamide], the inhibition at 33 µM in test [1] stood at 97.2%. The inhibition at 5 µM in test [2] came to 96.9%.

Regarding `CCN(CC(=O)N1CCCCC1C(=O)Nc1ccc(-c2ccccc2OC(F)(F)F)c(Cl)c1)S(C)(=O)=O` (centres unmarked) [Example 37, N-(2-chloro-2′-(trifluoromethoxy)-[1,1′-biphenyl]-4-yl)-1-(2-(N-ethylmethylsulfonamide)acetyl)piperidine-2-carboxamide], the inhibition at 33 µM in test [1] came to 104%. The inhibition at 5 µM in test [2] was 99.1%.

Regarding `CSCCC(=O)N1CCCCC1C(=O)Nc1ccc(-c2ccccc2OC(F)(F)F)c(Cl)c1` (centres unmarked) [Example 39, N-(2-chloro-2′-(trifluoromethoxy)-[1,1′-biphenyl]-4-yl)-1-(3-(methylthio)propanoyl)piperidine-2-carboxamide], the inhibition at 33 µM in test [1] stood at 98.8%. The inhibition at 5 µM in test [2] is 99.2%.

With `CS(=O)(=O)CCC(=O)N1CCCCC1C(=O)Nc1ccc(-c2ccccc2OC(F)(F)F)c(Cl)c1` (centres unmarked) [Example 40, N-(2-chloro-2′-(trifluoromethoxy)-[1,1′-biphenyl]-4-yl)-1-(3-(methylsulfonyl)propanoyl)piperidine-2-carboxamide], the inhibition at 33 µM in test [1] was found to be 98.7%. In test [2], the inhibition at 5 µM was 98.2%.

Consider `O=C(Nc1ccc(-c2ccccc2OC(F)(F)F)c(Cl)c1)C1CCCCN1C(=O)CCO` (centres unmarked) [Example 42, N-(2-chloro-2′-(trifluoromethoxy)-[1,1′-biphenyl]-4-yl)-1-(3-hydroxypropanoyl)piperidine-2-carboxamide], for which, in test [1], the inhibition at 33 µM amounted to 92.8%. In addition, the inhibition at 5 µM in test [2] was found to be 99.8%.

For the compound `COC(=O)CC(=O)N1CCCCC1C(=O)Nc1ccc(-c2ccccc2OC(F)(F)F)c(Cl)c1` (centres unmarked) [Example 43, methyl 3-(2-((2-chloro-2′-(trifluoromethoxy)-[1,1′-biphenyl]-4-yl)carbamoyl)piperidin-1-yl)-3-oxopropanoate], the inhibition at 33 µM in test [1] was 99%. The inhibition at 5 µM in test [2] amounted to 92.4%.

For `COC(=O)CCC(=O)N1CCCCC1C(=O)Nc1ccc(-c2ccccc2OC(F)(F)F)c(Cl)c1` (centres unmarked) [Example 44, methyl 4-(2-((2-chloro-2′-(trifluoromethoxy)-[1,1′-biphenyl]-4-yl)carbamoyl)piperidin-1-yl)-4-oxobutanoate], the inhibition at 33 µM in test [1] stood at 97.1%. Further, the inhibition at 5 µM in test [2] was determined as 91.5%.

For `COCCC(=O)N1CCCCC1C(=O)Nc1ccc(-c2ccccc2OC(F)(F)F)c(Cl)c1` (centres unmarked) [Example 45, N-(2-chloro-2′-(trifluoromethoxy)-[1,1′-biphenyl]-4-yl)-1-(3-methoxypropanoyl)piperidine-2-carboxamide], in test [1], the inhibition at 33 µM amounted to 92%. In addition, in test [2], the inhibition at 5 µM was 99.9%.

In the case of `Cn1cc(C(=O)N2CCCCC2C(=O)Nc2ccc(-c3ccccc3OC(F)(F)F)c(Cl)c2)cn1` (centres unmarked) [Example 46, N-(2-chloro-2′-(trifluoromethoxy)-[1,1′-biphenyl]-4-yl)-1-(1-methyl-1H-pyrazole-4-carbonyl)piperidine-2-carboxamide], in test [1], the inhibition at 33 µM was found to be 99.3%. For the same compound, the inhibition at 5 µM in test [2] was 99.2%.

Take `O=C(Nc1ccc(-c2ccccc2OC(F)(F)F)c(Cl)c1)C1CCCCN1C(=O)c1cn[nH]c1` (centres unmarked) [Example 48, N-(2-chloro-2′-(trifluoromethoxy)-[1,1′-biphenyl]-4-yl)-1-(1H-pyrazole-4-carbonyl)piperidine-2-carboxamide]: in test [1], the inhibition at 33 µM is 102%. Also, the inhibition at 5 µM in test [2] was found to be 99.4%.

On to `CC(C)Oc1ccccc1-c1ccc(NC(=O)C2CCCCN2C(=O)CN(C)S(C)(=O)=O)cc1Cl` (centres unmarked) [Example 49, N-(2-chloro-2′-isopropoxy-[1,1′-biphenyl]-4-yl)-1-(2-(N-methylmethylsulfonamide)acetyl)piperidine-2-carboxamide], for which the inhibition at 33 µM in test [1] was found to be 99.3%. Besides, the inhibition at 5 µM in test [2] was determined as 98.3%.

(Values after patent publication US10364222B2, “Cyclic amine derivative and medical use thereof” (Toray Industries, Inc., priority 2016, dated 2019).)
